# Experiments:
# mouse hepatocytes = experiment: In vitro metabolic stability in mouse hepatocytes; assay type: in vitro ADME
# Protocol: A. In Vitro Metabolic Stability in Hepatocyte
# A compound's metabolic stability was assessed using mouse hepatocytes incubated with pre-defined concentration of test articles over several incubation period. The extent of metabolism was calculated from the disappearance of the test compound measured by liquid chromatography mass spectrometry (LC-MS), compared to that of 0-min control. After incubation, quench solutions including internal standards were added and analyzed by LC/MS. The elimination rate constant and intrinsic clearance (CLhepatocyte) values were calculated by linear regression of the compound elimination over the duration of incubation, normalized to the cell number in the given volume of incubation medium.
# M2-8 cells = experiment: M2-8 Cell viability Assay; assay type: cell-based; details: at the concentration of 1000 nM
# wild-type HTT = experiment: Wild-type HTT assay in lymphoblastoid cells (LBC), Western blot; assay type: cell-based, human; details: 3 days compound treatment, read-out: LBC IC20 (nM) wtHTT
# In short: (§1)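 HD patient lymphoblastoid cells (GM14044, 250 CAG repeats in mutant allele) treated with compound for 3 days. Lysates normalised by BCA, run on SDS-PAGE and immunoblotted: mutant HTT with anti-polyQ MW1, wild-type HTT with anti-Huntingtin antibody, TBP and tubulin also probed. Band intensities quantified by infrared imaging.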
# [1] = target: T1, interaction between Supt4h and NGN (subunit of Supt5h) (Homo sapiens, UniProt O00267+P63272); experiment: Split Gaussia luciferase complementation assay (M2-8 Luciferase); assay type: cell-based; details: M2-8 cells
# T1 construct: expressed in transfected cells
# In short: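 HEK293-derived M2-8 cells inducibly express Supt4h-Gluc1 and NGN-Gluc2 fragments (stabilizing mutations) on RheoSwitch ligand addition; ligand plus compound added 24 h after plating and left 24 h. Cells frozen, lysed with 10 μg/ml native coelenterazine, 1 h room temperature dark; complemented luciferase luminescence read.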
# mutant HTT = experiment: Mutant HTT assay in lymphoblastoid cells (LBC), Western blot; assay type: cell-based, human; details: read-out: LBC IC20 (nM) mHTT, 3 days compound treatment
# In short: as §1
# [2] = tested on: Lymphoblastoid cells (GM14044); experiment: LBC cell viability (Cell Titer-Glo); assay type: cell-based, human; details: at the concentration of IC20, 3-day compound treatment
# Protocol: Cell viability was determined by Cell Titer-Glo reagent (Promega, PRG9243). After 3-day compound treatment, 15 μl of cell suspension was taken out from plate and incubated with 10 μl of CTG reagent. The values of reaction mixture were detected by Tecan.
SMILES,Mouse HepStability (CLhepatocyte) (mouse hepatocytes),M2-8 Cell viability (M2-8 cells),IC20 (wild-type HTT),IC50 [1],IC20 (mutant HTT),LBC viability at IC20 [2],"elimination in in vitro hepatocyte stability assay (comparison) (mouse hepatocytes; compound #2 versus deuterated compound #42, FIG. 1A)"
"CS(=N)(=O)c1ccc(CN[C@@H]2CCCc3c2[nH]c2ccc(Br)cc32)cc1 (stereo partly drawn) [Compound 49, (4-((((R)-6-bromo-2,3,4,9-tetrahydro-1H-carbazol-1-yl)amino)methyl)phenyl)(imino)(methyl)-λ^6-sulfanone]",B (CLhepatocyte 10-30 μl/min/10^6cells),+ (cell viability is greater than 50% at the concentration of 1000 nM),> 500 nM,≤ 0.1 µM,101 to 300 nM,* (cell viability is greater than 60% at the concentration of IC20),–
"OCc1ccc(CN[C@@H]2CCCc3c2[nH]c2ccc(Br)cc32)cc1 [Compound 2, (R)-(4-(((6-bromo-2,3,4,9-tetrahydro-1H-carbazol-1-yl)amino)methyl)phenyl)methanol]",C (CLhepatocyte >30 μl/min/10^6cells),+ (cell viability is greater than 50% at the concentration of 1000 nM),> 250 nM,≤ 0.1 µM,< 100 nM,* (cell viability is greater than 60% at the concentration of IC20),more rapidly eliminated
OCc1ccc(CNC2CCCc3c2[nH]c2ccc(Br)cc32)cc1 (stereo not shown) [Compound 1],C (CLhepatocyte >30 μl/min/10^6cells),+ (cell viability is greater than 50% at the concentration of 1000 nM),> 1000 nM,≤ 0.1 µM,101 to 300 nM,* (cell viability is greater than 60% at the concentration of IC20),–
"CC(C)(O)c1ccc(CN[C@@H]2CCCc3c2[nH]c2ccc(Br)cc32)cc1 [Compound 31, (R)-2-(4-(((6-bromo-2,3,4,9-tetrahydro-1H-carbazol-1-yl)amino)methyl)phenyl)propan-2-ol]",A (CLhepatocyte <10 μl/min/10^6cells),+ (cell viability is greater than 50% at the concentration of 1000 nM),> 250 nM,≤ 0.1 µM,< 100 nM,* (cell viability is greater than 60% at the concentration of IC20),–
"OCCOCc1ccc(CN[C@@H]2CCCc3c2[nH]c2ccc(Br)cc32)cc1 (single isomer, unassigned) [Compound 28]",A (CLhepatocyte <10 μl/min/10^6cells),+ (cell viability is greater than 50% at the concentration of 1000 nM),> 1000 nM,≤ 0.1 µM,< 100 nM,* (cell viability is greater than 60% at the concentration of IC20),–
"[2H]C([2H])(O)c1ccc(CN[C@@H]2CCCc3c2[nH]c2ccc(Br)cc32)cc1 [Compound 42, (R)-(4-(((6-bromo-2,3,4,9-tetrahydro-1H-carbazol-1-yl)amino)methyl)phenyl)methan-d2-ol]",C (CLhepatocyte >30 μl/min/10^6cells),+ (cell viability is greater than 50% at the concentration of 1000 nM),> 1000 nM,≤ 0.1 µM,< 100 nM,* (cell viability is greater than 60% at the concentration of IC20),–

# Reference: patent US20220062233A1 (The Board of Trustees of the Leland Stanford Junior …, priority 2018, published 2022)
